Test results: US20250332143A1, “COMPOSITION COMPRISING ALOX5 INHIBITOR FOR PREVENTING OR TREATING SARCOPENIA” (PLUTO Inc., priority 2022, published 2025)

Assays:
[1] = system: Dex-treated C2C12 myotubes; assay: Dex-induced myotube atrophy, myosin heavy chain immunostaining, myotube diameter; format: cell-based, mouse; settings: 10 μM Dex 24 h; for diameter of muscle fibers (C2C12 myotubes): zileuton 10 µM, wedelolactone 20 μM (FIGS. 2, 3)
Method: (§1) C2C12 murine skeletal muscle myoblasts were obtained from Koram Biotech (Republic of Korea). The cells were maintained in DMEM growth medium supplemented with 10% FBS, 1% penicillin, and streptomycin. When myoblasts proliferated to approximately 90%, they were differentiated into muscle fibers by treating them with DMEM differentiation medium supplemented with 2% HS, 1% penicillin, and streptomycin for 96 hours. Differentiated muscle fibers were treated with 10 μM Dex for 24 hours to induce sarcopenia. To evaluate the degree of differentiation of muscle cells, differentiating myoblasts were treated with the corresponding compound in differentiation medium for 24 or 48 hours.
Muscle fibers were stained using immunochemical staining using myosin heavy chain antibody. Specifically, the muscle fibers were rinsed three times with PBS and then fixed with a 3.7% formaldehyde solution. After rinsing with PBS, a transparency process was performed with 0.2% TritonX-100 solution, and additional rinsing was performed with PBS. They were blocked with 1% bovine serum albumin solution (1% BSA in PBS-T) and incubated with primary antibody overnight at 4° C. After washing with PBS, the secondary antibody was treated for 1 hour. Afterwards, the myotubes were counterstained with 1 μM DAPI in PBS. Fluorescence images of stained myotubes in five different areas were obtained using a DMI 3000 B microscope (Leica, Germany) and analyzed using ImageJ 1.52 software (National Institutes of Health, Bethesda, MD, USA). Myotubes were classified as myosin heavy chain positive cells containing four or more nuclei, and the diameter of muscle fibers containing four or more nuclei was measured.

Atrogin-1 and MuRF-1 = assay: qPCR of muscle atrophy regulators in Dex-treated C2C12 myotubes; format: cell-based, mouse
Method: as §1
For quantitative real-time PCR, transcript levels of genes of interest were analyzed using the StepOnePlus real-time PCR system (Applied Biosystems, UK). Total RNA was reverse transcribed to prepare cDNA using AccuPower® RT PreMix (Bioneer Corporation). The obtained cDNA was subjected to real-time PCR according to the manufacturer's instructions with the following changes. PCR was performed in triplicate in a total volume of 20 μL 2× Power SYBR Green PCR Master Mix (Enzynomics, Republic of Korea) containing 200 nM (final concentration) of each specific primer and 1 μL of cDNA synthesized from 1 μg of total RNA. PCR amplification consisted of incubating the mixture at 95° C. for 10 minutes, followed by 40 cycles of denaturation, annealing, and extension. Denaturation was performed at 95° C. for 15 s, annealing was performed at 60° C. for 1 min, and extension was performed at 72° C. for 20 s with fluorescence detection at 72° C. after each cycle. After the final cycle, melting point analysis of all samples was performed within the range of 60 to 95° C. using continuous fluorescence detection. Specific cDNA samples were included in each run and used as reference material for comparison between runs. The expression level of GAPDH was used to calculate and normalize the expression levels of all other genes. Results were expressed as relative expression levels for each gene. The synthesized cDNA was amplified by quantitative real-time PCR (qRT-PCR) or standard PCR.

Structure (SMILES) | myotube atrophy in Dex-treated myotubes ([1]; C2C12 myotubes) | Atrogin-1 expression (mRNA, qPCR) (Atrogin-1 and MuRF-1) | diameter of muscle fibers (C2C12 myotubes) [1] | MuRF-1 expression (mRNA, qPCR) (Atrogin-1 and MuRF-1)
CCCCC/C=C\C[C@@H](O)/C=C/C=C/C=C\[C@@H](O)CCCC(=O)O [LTB4, Leukotriene B4] | did not affect | did not affect |  | 
COc1cc(O)c2c(c1)oc(=O)c1c3cc(O)c(O)cc3oc21 [wedelolactone, Wedelolactone] |  | decreased | recovered | decreased
CC(c1cc2ccccc2s1)N(O)C(N)=O (centres unmarked) [zileuton, Zileuton] |  | decreased | recovered | decreased
